Laboratory results as given in US8242159B2, “1,3-dihydro-5-isobenzofurancarbonitrile derivatives and pharmaceutical composition thereof for the treatment of premature ejaculation” (Dong-A Pharmaceutical. Co., Ltd, priority 2007, dated 2012).

Tested on: Male Wistar rats
Test: p-PCA-induced ejaculation in anesthetized rats (ejaculation-delaying effect)
Format: in vivo, rat
Settings: for Ratio: Number of responding animals/total animal number: 50 mg/kg oral in 1% HPMC, p-PCA 5 mg/kg i.p. 80 min later, observed 30 min; for Latency: Time to display the ejaculatory response: 50 mg/kg oral, p-PCA 5 mg/kg i.p., mean ± standard deviation of responding rats
Experimental: The compounds prepared in the above examples were evaluated to determine whether they have an effect of delaying ejaculation. The evaluation was carried out using an animal model according to a method described in Yonezawa et al., Life Sci. 2000, 67(25) p 3031-9. Male Wistar rats weighing 240-260 g were used. Each compound was suspended in 1% HPMC, and then administered orally to each animal. After 60 min, the animals were anesthetized and fixed. 20 min later, para-chloroamphetamine (p-PCA) was intraperitoneally administered in a dose of 5 mg/kg in order to induce ejaculation. […] An ejaculatory response was considered to be elicited when rhythmic contraction of bulbocavernosus muscles and semen discharge occurs. Six or more animals were used for each compound. A Fisher's […] test was performed for the comparison of the proportion of responding rats (ejaculated rats) to determine significance of difference between a treatment group and a vehicle control. The time to reach ejaculation was expressed as mean±standard deviation.
Each test compound was administered at a dose of 50 mg/kg. Ejaculation was elicited in all seven animals of a control group.

Row | SMILES | Ratio: Number of responding animals/total animal number | Latency: Time to display the ejaculatory response
1 | COc1ccc(C2(CCn3cccn3)OCc3cc(C#N)ccc32)cc1.Cl (stereo not shown) [Ex. 11, 1-(4-methoxyphenyl)-1-{2-(pyrazole-1-yl)ethyl}-1,3-dihydro-5-isobenzofurancarbonitrile hydrochloride] | 3/7 | 974 ± 289 s
2 | CN(C)CCC1(c2cccs2)OCc2cc(C#N)ccc21 (stereo not shown) [Ex. 42, 1-{2-(dimethylamino)ethyl}-1-(2-thienyl)-1,3-dihydro-5-isobenzofurancarbonitrile] | 4/9 | 906 ± 275 s
3 | N#Cc1ccc2c(c1)COC2(CCn1ccnc1)c1ccccc1 (stereo not shown) [Ex. 18, 1-{2-(imidazole-1-yl)ethyl}-1-phenyl-1,3-dihydro-5-isobenzofurancarbonitrile] | 3/7 | 691 ± 361 s
4 | Cc1ccc(C2(CCCN(C)C)OCc3cc(C#N)ccc32)cc1 (stereo not shown) [Ex. 22, 1-{3-(dimethylamino)propyl}-1-(4-tolyl)-1,3-dihydro-5-isobenzofurancarbonitrile] | 3/7 | 830 ± 287 s
5 | COc1ccc(C2(CCCn3cccn3)OCc3cc(C#N)ccc32)cc1.Cl (stereo not shown) [Ex. 9, 1-(4-methoxyphenyl)-1-{3-(pyrazole-1-yl)propyl}-1,3-dihydro-5-isobenzofurancarbonitrile hydrochloride] | 4/7 | 950 ± 245 s
6 | N#Cc1ccc2c(c1)COC2(CCn1cccn1)c1ccccc1 (stereo not shown) [Ex. 20, 1-phenyl-1-{2-(pyrazole-1-yl)ethyl}-1,3-dihydro-5-isobenzofurancarbonitrile] | 3/7 | 978 ± 378 s
7 | CN(C)CCCC1(c2cccs2)OCc2cc(C#N)ccc21 (stereo not shown) [Ex. 39, 1-{3-(dimethylamino)propyl}-1-(2-thienyl)-1,3-dihydro-5-isobenzofurancarbonitrile] | 5/9 | 854 ± 287 s
8 | N#Cc1ccc2c(c1)COC2(CCCn1cccn1)c1cccs1 (stereo not shown) [Ex. 49, 1-{3-(pyrazole-1-yl)propyl}-1-(2-thienyl)-1,3-dihydro-5-isobenzofurancarbonitrile] | 5/9 | 807 ± 301 s
9 | Cl.N#Cc1ccc2c(c1)COC2(CCCn1cccn1)c1ccc(Cl)cc1 (stereo not shown) [Ex. 66, 1-(4-chlorophenyl)-1-{3-(pyrazole-1-yl)propyl}-1,3-dihydro-5-isobenzofurancarbonitrile hydrochloride] | 4/7 | 960 ± 350 s
10 | Cl.N#Cc1ccc2c(c1)COC2(CCn1ccnc1)c1ccc(Cl)cc1 (stereo not shown) [Ex. 64, 1-(4-chlorophenyl)-1-{2-(imidazole-1-yl)ethyl}-1,3-dihydro-5-isobenzofurancarbonitrile hydrochloride] | 4/7 | 1032 ± 299 s
11 | Cc1ccc(C2(CCn3ccnc3)OCc3cc(C#N)ccc32)cc1.Cl (stereo not shown) [Ex. 29, 1-{2-(imidazole-1-yl)ethyl}-1-(4-tolyl)-1,3-dihydro-5-isobenzofurancarbonitrile hydrochloride] | 5/9 | 1054 ± 287 s
12 | Cc1ccc(C2(CCCn3ccnc3)OCc3cc(C#N)ccc32)cc1 (stereo not shown) [Ex. 26, 1-{3-(imidazole-1-yl)propyl}-1-(4-tolyl)-1,3-dihydro-5-isobenzofurancarbonitrile] | 4/7 | 904 ± 304 s
13 | CN(C)CCCC1(c2ccccc2)OCc2cc(C#N)ccc21 (stereo not shown) [Ex. 12, 1-{3-(dimethylamino)propyl}-1-phenyl-1,3-dihydro-5-isobenzofurancarbonitrile] | 4/9 | 1025 ± 189 s
14 | COc1ccc(C2(CCn3ccnc3)OCc3cc(C#N)ccc32)cc1 (stereo not shown) [Ex. 6, 1-{2-(imidazole-1-yl)ethyl}-1-(4-methoxyphenyl)-1,3-dihydro-5-isobenzofurancarbonitrile] | 4/7 | 889 ± 284 s
15 | N#Cc1ccc2c(c1)COC2(CCn1ccnc1)c1ccc(Cl)cc1 (stereo not shown) [Ex. 63, 1-(4-chlorophenyl)-1-{2-(imidazole-1-yl)ethyl}-1,3-dihydro-5-isobenzofurancarbonitrile] | 3/7 | 904 ± 307 s
16 | COc1ccc(C2(CCn3cccn3)OCc3cc(C#N)ccc32)cc1 (stereo not shown) [Ex. 10, 1-(4-methoxyphenyl)-1-{2-(pyrazole-1-yl)ethyl}-1,3-dihydro-5-isobenzofurancarbonitrile] | 4/9 | 889 ± 360 s
17 | Cl.N#Cc1ccc2c(c1)COC2(CCn1ccnc1)c1ccccc1 (stereo not shown) [Ex. 19, 1-{2-(imidazole-1-yl)ethyl}-1-phenyl-1,3-dihydro-5-isobenzofurancarbonitrile hydrochloride] | 5/9 | 954 ± 275 s
18 | Cc1ccc(C2(CCCn3ccnc3)OCc3cc(C#N)ccc32)cc1.Cl (stereo not shown) [Ex. 27, 1-{3-(imidazole-1-yl)propyl}-1-(4-tolyl)-1,3-dihydro-5-isobenzofurancarbonitrile hydrochloride] | 3/7 | 864 ± 257 s
19 | Cl.N#Cc1ccc2c(c1)COC2(CCn1cccn1)c1cccs1 (stereo not shown) [Ex. 52, 1-{2-(pyrazole-1-yl)ethyl}-1-(2-thienyl)-1,3-dihydro-5-isobenzofurancarbonitrile hydrochloride] | 3/7 | 869 ± 274 s
20 | Cl.N#Cc1ccc2c(c1)COC2(CCn1cccn1)c1ccccc1 (stereo not shown) [Ex. 21, 1-phenyl-1-{2-(pyrazole-1-yl)ethyl}-1,3-dihydro-5-isobenzofurancarbonitrile hydrochloride] | 4/7 | 799 ± 387 s
21 | N#Cc1ccc2c(c1)COC2(CCn1ccnc1)c1cccs1 (stereo not shown) [Ex. 47, 1-{2-(imidazole-1-yl)ethyl}-1-(2-thienyl)-1,3-dihydro-5-isobenzofurancarbonitrile] | 4/7 | 814 ± 278 s
22 | Cl.N#Cc1ccc2c(c1)COC2(CCn1cccn1)c1ccc(Cl)cc1 (stereo not shown) [Ex. 68, 1-(4-chlorophenyl)-1-{2-(pyrazole-1-yl)ethyl}-1,3-dihydro-5-isobenzofurancarbonitrile hydrochloride] | 4/9 | 908 ± 274 s
23 | COc1ccc(C2(CCCN(C)C)OCc3cc(C#N)ccc32)cc1 (stereo not shown) [Ex. 1, 1-(4-methoxyphenyl)-1-{3-(dimethylamino)propyl}-1,3-dihydro-5-isobenzofurancarbonitrile] | 5/9 | 1024 ± 256 s
24 | COc1ccc(C2(CCCn3ccnc3)OCc3cc(C#N)ccc32)cc1.Cl (stereo not shown) [Ex. 5, 1-{13-(imidazole-1-yl)propyl}-1-(4-methoxyphenyl)-1,3-dihydro-5-isobenzofurancarbonitrile hydrochloride] | 3/7 | 986 ± 342 s
25 | Cl.N#Cc1ccc2c(c1)COC2(CCCn1ccnc1)c1cccs1 (stereo not shown) [Ex. 46, 1-{3-(imidazole-1-yl)propyl}-1-(2-thienyl)-1,3-dihydro-5-isobenzofurancarbonitrile hydrochloride] | 0/7 | –
26 | CN(C)CCCC1(c2ccc(N(C)C)cc2)OCc2cc(C#N)ccc21 (stereo not shown) [Ex. 34, 1-(4-dimethylaminophenyl)-1-{3-(dimethylamino)propyl}-1,3-dihydro-5-isobenzofurancarbonitrile] | 4/9 | 807 ± 304 s
27 | N#Cc1ccc2c(c1)COC2(CCCn1cccn1)c1ccc(Cl)cc1 (stereo not shown) [Ex. 65, 1-(4-chlorophenyl)-1-{3-(pyrazole-1-yl)propyl}-1,3-dihydro-5-isobenzofurancarbonitrile] | 5/9 | 801 ± 401 s
28 | N#Cc1ccc2c(c1)COC2(CCCn1ccnc1)c1ccccc1 (stereo not shown) [Ex. 16, 1-{3-(imidazole-1-yl)propyl}-1-phenyl-1,3-dihydro-5-isobenzofurancarbonitrile] | 4/9 | 856 ± 365 s
